According to ChEMBL document CHEMBL5584295, “Formononetin Derivative for Osteoporosis by Simultaneous Regulating Osteoblast and Osteoclast” (J Nat Prod, 2024):
Active and inactive are the calls of the source. The calls are words filed in the database; no cut-off is given here.

Legend:
[1] = Induction of osteogenesis in Wistar rat bone marrow-derived MSC assessed as increase in bone formation by measuring fold change at 0.4 uM measured after 14 days with fresh culture medium replacement for every 3 days by Alizarin red staining based analysis; assay type: functional; conditions: time 14 day
[2] = Cytotoxicity against Wistar rat bone marrow-derived MSC assessed as reduction in cell viability at 0.4 to 2 uM after 72 hrs by MTS assay; assay type: toxicity, cell-based; conditions: dose 0.4-2 µM
[3] = Cytotoxicity against Wistar rat bone marrow-derived MSC assessed as inhibition of cell viability at 10 uM after 72 hrs by MTS assay relative to control; assay type: toxicity, cell-based; conditions: bone marrow-derived mesenchymal stem cells (MSC), read-out: INH
Mus musculus [4] = experiment: Anti-osteoporosis activity in OVX-induced osteoporosis ICR mouse model assessed as decrease in trabecular spacing by in femur at 20 mg/kg, IG and measured after 12 weeks by micro-CT analysis relative to control; assay type: functional
Mus musculus [5] = experiment: Anti-osteoporosis activity in OVX-induced osteoporosis ICR mouse model assessed as increase in bone mineral density by measuring fold change in femur at 20 mg/kg, IG and measured after 12 weeks by micro-CT analysis; assay type: functional
Mus musculus [6] = experiment: Anti-osteoporosis activity in OVX-induced osteoporosis ICR mouse model assessed as decrease in trabecular spacing by in femur at 10 mg/kg, ip and measured after 12 weeks by micro-CT analysis relative to control; assay type: functional
Mus musculus [7] = experiment: Anti-osteoporosis activity in OVX-induced osteoporosis ICR mouse model assessed as increase in trabecular thickness by measuring fold change in femur at 20 mg/kg, IG and measured after 12 weeks by micro-CT analysis; assay type: functional
Mus musculus [8] = experiment: Anti-osteoporosis activity in OVX-induced osteoporosis ICR mouse model assessed as increase in bone mineral density by measuring fold change in femur at 10 mg/kg, ip and measured after 12 weeks by micro-CT analysis; assay type: functional
Mus musculus [9] = experiment: Anti-osteoporosis activity in OVX-induced osteoporosis ICR mouse model assessed as increase in trabecular number in femur at 20 mg/kg, IG and measured after 12 weeks by micro-CT analysis; assay type: functional, organism-based
Mus musculus [10] = experiment: Anti-osteoporosis activity in OVX-induced osteoporosis ICR mouse model assessed as increase in BV/TV by measuring fold change in femur at 20 mg/kg, IG and measured after 12 weeks by micro-CT analysis; assay type: functional
[11] = Cytotoxicity against Wistar rat bone marrow-derived MSC assessed as reduction in cell viability at 0.4 to 10 uM after 72 hrs by MTS assay; assay type: toxicity, cell-based; conditions: dose 0.4-10 µM
MSC [12] = experiment: Induction of osteogenesis in Wistar rat bone marrow-derived MSC assessed as increase in increase in calcium nodes at 0.4 uM measured after 14 days with fresh culture medium replacement for every 3 days by Alizarin red staining based analysis; assay type: functional, cell-based; conditions: time 14.0 day
Mus musculus [13] = experiment: Anti-osteoporosis activity in OVX-induced osteoporosis ICR mouse model assessed as increase in trabecular thickness by measuring fold change in femur at 10 mg/kg, ip and measured after 12 weeks by micro-CT analysis; assay type: functional
Mus musculus [14] = experiment: Anti-osteoporosis activity in OVX-induced osteoporosis ICR mouse model assessed as increase in trabecular number by measuring fold change in femur at 10 mg/kg, ip and measured after 12 weeks by micro-CT analysis; assay type: functional
RAW264.7 [15] = experiment: Inhibition of RANK/RANKL/OPG signaling pathway in RANKL-stimulated mouse RAW264.7 cells assessed as increase in OPG protein expression level at 1 uM after 5 days by Western blot analysis; assay type: cell-based; conditions: time 5.0 day
RAW264.7 [16] = experiment: Inhibition of RANKL-induced osteoclastogenesis in mouse RAW264 cells assessed as decrease in number of osteoclast at 1 to 10 uM incubated for 5 days by TRAP staining based microscopic analysis; assay type: functional, cell-based; conditions: dose 1-10 µM, time 5.0 day
Mus musculus [17] = experiment: Anti-osteoporosis activity in OVX-induced osteoporosis ICR mouse model assessed as increase in trabecular number by measuring fold change in femur at 20 mg/kg, IG and measured after 12 weeks by micro-CT analysis; assay type: functional
Mus musculus [18] = experiment: Anti-osteoporosis activity in OVX-induced osteoporosis ICR mouse model assessed as increase in BV/TV by measuring fold change in femur at 10 mg/kg, ip and measured after 12 weeks by micro-CT analysis; assay type: functional
RAW264.7 [19] = experiment: Cytotoxicity against mouse RAW264.7 cells assessed as reduction in cell viability at 1 to 10 uM after 72 hrs by MTS assay; assay type: toxicity, cell-based; conditions: raw264.7, 72 h, dose 1-10 µM
RAW264.7 [20] = experiment: Inhibition of RANK/RANKL/OPG signaling pathway in mouse RAW264.7 cells assessed as decrease in RANKL-stimulated RANK protein expression level at 1 uM after 5 days by Western blot analysis; assay type: cell-based; conditions: time 5.0 day
RAW264.7 [21] = experiment: Inhibition of RANK/RANKL/OPG signaling pathway in mouse RAW264.7 cells assessed as decrease in RANKL-stimulated NFATc-1 protein expression level at 1 uM after 5 days by Western blot analysis; assay type: cell-based; conditions: time 5.0 day
MSC [22] = experiment: Induction of osteogenesis in Wistar rat bone marrow-derived MSC assessed as increase in ALP at 0.4 uM measured after 1 week with fresh culture medium replacement for every 3 days by ALP staining based analysis; assay type: functional, cell-based; conditions: time 1.0 weeks
RAW264.7 [23] = experiment: Inhibition of RANK/RANKL/OPG signaling pathway in RANKL-stimulated mouse RAW264.7 cells assessed as increase in c-Jun protein expression level at 1 uM after 5 days by Western blot analysis; assay type: cell-based; conditions: time 5.0 day
RAW264.7 [24] = experiment: Inhibition of RANKL-induced osteoclastogenesis in mouse RAW264 cells assessed as number of osteoclast at 5 uM incubated for 5 days by TRAP staining based microscopic analysis (reference value: 95); assay type: functional; conditions: time 5 day
MSC [25] = experiment: Activation of BMP/Smad signaling pathway in Wistar rat bone marrow-derived MSC assessed as increase in alp mRNA expression at 0.4 uM incubated for 14 days by RT-qPCR analysis; assay type: cell-based; conditions: filed as activator, time 14.0 day
MSC [26] = experiment: Activation of BMP/Smad signaling pathway in Wistar rat bone marrow-derived MSC assessed as increase in bmp5 mRNA expression at 0.4 uM incubated for 14 days by RT-qPCR analysis; assay type: cell-based; conditions: filed as activator, time 14.0 day
MSC [27] = experiment: Activation of BMP/Smad signaling pathway in Wistar rat bone marrow-derived MSC assessed as increase in bmp2 mRNA expression at 0.4 uM incubated for 14 days by RT-qPCR analysis; assay type: cell-based; conditions: filed as activator, time 14.0 day
MSC [28] = experiment: Activation of BMP/Smad signaling pathway in Wistar rat bone marrow-derived MSC assessed as increase in smad9 mRNA expression at 0.4 uM incubated for 14 days by RT-qPCR analysis; assay type: cell-based; conditions: filed as activator, time 14.0 day
RAW264.7 [29] = experiment: Inhibition of RANKL-induced osteoclastogenesis in mouse RAW264 cells assessed as number of osteoclast at 10 uM incubated for 5 days by TRAP staining based microscopic analysis (reference value: 95); assay type: functional; conditions: time 5 day
MSC [30] = experiment: Activation of BMP/Smad signaling pathway in Wistar rat bone marrow-derived MSC assessed as increase in smad1 mRNA expression at 0.4 uM incubated for 14 days by RT-qPCR analysis; assay type: cell-based; conditions: filed as activator, time 14.0 day
MSC [31] = experiment: Activation of BMP/Smad signaling pathway in Wistar rat bone marrow-derived MSC assessed as increase in smad4 mRNA expression at 0.4 uM incubated for 14 days by RT-qPCR analysis; assay type: cell-based; conditions: filed as activator, time 14.0 day
RAW264.7 [32] = experiment: Inhibition of RANKL-induced osteoclastogenesis in mouse RAW264 cells assessed as number of osteoclast at 1 uM incubated for 5 days by TRAP staining based microscopic analysis (reference value: 95); assay type: functional; conditions: time 5 day
[33] = Induction of osteogenesis in Wistar rat bone marrow-derived MSC assessed as increase in bone formation by measuring fold change at 1 uM measured after 14 days with fresh culture medium replacement for every 3 days by Alizarin red staining based analysis; assay type: functional; conditions: time 14 day
MSC [34] = experiment: Induction of osteogenesis in Wistar rat bone marrow-derived MSC assessed as increase in ALP at 1 uM measured after 1 week with fresh culture medium replacement for every 3 days by ALP staining based analysis; assay type: functional, cell-based; conditions: time 1.0 weeks
MSC [35] = experiment: Induction of osteogenesis in Wistar rat bone marrow-derived MSC assessed as increase in calcium nodes at 1 uM measured after 14 days with fresh culture medium replacement for every 3 days by Alizarin red staining based analysis; assay type: functional, cell-based; conditions: time 14.0 day

COc1ccc(-c2coc3c(C=O)c(O)ccc3c2=O)cc1
fold change (FC) [1]: 1.3
Activity [2]: Non-Toxic
cytotoxicity at 72 h, 10 µM [3]: 15.5%

CC(C)Oc1ccc2c(=O)c(-c3ccccc3)coc2c1 [IPRIFLAVONE]
Activity (Mus musculus [4]): inactive
fold change (FC) (Mus musculus [5]): 3.3
Activity (Mus musculus [6]): inactive
fold change (FC) (Mus musculus [7]): 1.17
fold change (FC) (Mus musculus [8]): 1.9
Activity (Mus musculus [9]): inactive
fold change (FC) (Mus musculus [10]): 2.3

COc1ccc(-c2coc3c4c(ccc3c2=O)OCN(C2CCCCC2)C4)cc1
Activity [11]: Non-Toxic
fold change (FC) [1]: 0.8

COc1ccc(-c2coc3c4c(ccc3c2=O)OCN(Cc2ccccc2)C4)cc1
Activity [11]: Non-Toxic
fold change (FC) [1]: 1

CCCCCCN1COc2ccc3c(=O)c(-c4ccc(OC)cc4)coc3c2C1
Activity [11]: Non-Toxic
fold change (FC) [1]: 1.2

CCCCN1COc2ccc3c(=O)c(-c4ccc(OC)cc4)coc3c2C1
Activity (MSC [12]): Active
fold change (FC) (Mus musculus [13]): 1.51
Activity (Mus musculus [4]): 63%
fold change (FC) (Mus musculus [14]): 1.94
Activity [11]: Non-Toxic
fold change (FC) [1]: 1.9
fold change (FC) (Mus musculus [5]): 3.3
inhibition (RAW264.7 [15]): inactive
inhibition (RAW264.7 [16]): inactive
Activity (Mus musculus [6]): 43%
fold change (FC) (Mus musculus [17]): 1.42
fold change (FC) (Mus musculus [18]): 6.47
fold change (FC) (Mus musculus [8]): 10.3
Activity (RAW264.7 [19]): Non-Toxic
inhibition (RAW264.7 [20]): inactive
inhibition (RAW264.7 [21]): inactive
fold change (FC) (Mus musculus [10]): 2.2
Activity (MSC [22]): Active
inhibition (RAW264.7 [23]): inactive

CCCCCCCCNCc1c(O)ccc2c(=O)c(-c3ccc(OC)cc3)coc12
Activity [11]: Non-Toxic
fold change (FC) [1]: 1.1

COc1ccc(-c2coc3c4c(ccc3c2=O)OCN(Cc2ccoc2)C4)cc1
Activity (RAW264.7 [24]): 24
Activity (MSC [12]): Active
fold change (FC) (Mus musculus [13]): 1.9
Activity (Mus musculus [4]): inactive
Activity (MSC [25]): Active
fold change (FC) (Mus musculus [14]): 2.17
Activity [11]: Non-Toxic
Activity (MSC [26]): Active
fold change (FC) [1]: 2.3
inhibition (RAW264.7 [15]): Active
Activity (MSC [27]): Active
Activity (Mus musculus [6]): 37%
Activity (MSC [28]): Active
fold change (FC) (Mus musculus [18]): 9.25
Activity (RAW264.7 [29]): 29
fold change (FC) (Mus musculus [8]): 15.2
Activity (RAW264.7 [19]): Non-Toxic
Activity (MSC [30]): Active
inhibition (RAW264.7 [20]): Active
inhibition (RAW264.7 [21]): Active
Activity (MSC [31]): Active
Activity (Mus musculus [9]): inactive
fold change (FC) (Mus musculus [10]): 2.13
Activity (RAW264.7 [32]): 30
Activity (MSC [22]): Active
inhibition (RAW264.7 [23]): Active

COc1ccc(-c2coc3cc(O)ccc3c2=O)cc1 [FORMONONETIN]
fold change (FC) [33]: 1.4
Activity (MSC [34]): Active
Activity (MSC [35]): Active
Activity (RAW264.7 [32]): 66
